Where two headings read alike, the source gives them in different places.
Columns and labels:
[1] = target: T1, human recombinant dopamine D2L receptor (Homo sapiens, UniProt P14416); experiment: Dopamine D2L radioligand binding ([3H]Spiperone); conditions: read-out: Dopamine (1 μM) D2L, percent inhibition of specific binding
T1 construct: expressed in transfected cells; host or cells: CHO cells
Description: To evaluate in radioligand binding assays the activity of compounds of the invention, human recombinant dopamine D2L receptor expressed in Chinese hamster ovary (CHO) cells (Grandy, D. K. et al. Proc. Natl. Acad. Sci. USA. 86:9762, 1989; Hayes, G. et al., Mol. Endocrinol. 6:920, 1992) in a modified Tris-HCl buffer (50 mM Tris-HCl, pH 7.4, 1.4 mM Ascorbic Acid, 0.001% BSA, 150 mM NaCl) was used. Compounds of the invention were incubated with 0.16 nM [^3H]Spiperone for 120 minutes at 25° C. Non-specific binding was estimated in the presence of 10 μM Haloperidol. Receptor proteins were filtered and washed, the filters were then counted to determine [^3H]Spiperone specifically bound. Compounds were screened at 1 μM or lower, using 1% DMSO as vehicle. Biochemical assay results are presented as the percent inhibition of specific binding in Table 6.

[2] = target: T2, human recombinant adrenergic α2B receptor (Homo sapiens, UniProt P18089); experiment: Adrenergic α2B radioligand binding ([3H]Rauwolscine); conditions: read-out: Adrenergic (1 μM) α2B, percent inhibition of specific binding
T2 construct: expressed in transfected cells; host or cells: CHO-K1 cells
T2 sequence (P18089 1-450): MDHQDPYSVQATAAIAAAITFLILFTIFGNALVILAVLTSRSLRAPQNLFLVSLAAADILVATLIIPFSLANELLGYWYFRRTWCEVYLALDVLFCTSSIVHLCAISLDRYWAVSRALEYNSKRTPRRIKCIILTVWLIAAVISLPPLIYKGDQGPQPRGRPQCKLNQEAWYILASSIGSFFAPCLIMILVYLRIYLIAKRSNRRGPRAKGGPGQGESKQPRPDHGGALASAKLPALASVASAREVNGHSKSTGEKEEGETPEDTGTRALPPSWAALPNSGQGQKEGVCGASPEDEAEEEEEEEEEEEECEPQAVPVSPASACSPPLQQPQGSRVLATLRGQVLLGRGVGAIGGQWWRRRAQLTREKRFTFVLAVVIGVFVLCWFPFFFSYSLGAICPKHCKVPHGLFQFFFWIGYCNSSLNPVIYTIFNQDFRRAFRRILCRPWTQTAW
Description: To evaluate in radioligand binding assays the activity of compounds of the invention, human recombinant adrenergic α2B receptor expressed in Chinese hamster ovary (CHO-K1) cells (Uhlen S et al. Eur. J. Pharmacol. 343(1):93, 1998) in a modified Tris-HCl buffer (50 mM Tris-HCl, pH 7.4, 12.5 mM MgCl2, 1 mM EDTA, 0.2% BSA) was used. Compounds of the invention were incubated with 2.5 nM [3H]Rauwolscine for 60 minutes at 25° C. Non-specific binding was estimated in the presence of 10 μM Prozosin. Receptor proteins were filtered and washed, the filters were then counted to determine [^3H]Rauwolscine specifically bound. Compounds were screened at 1 μM or lower, using 1% DMSO as vehicle. Biochemical assay results are presented as the percent inhibition of specific binding in Table 6.

[3] = target: T3, human recombinant adrenergic α2A receptor (Homo sapiens, UniProt P08913); experiment: Adrenergic α2A radioligand binding ([3H]MK-912); conditions: read-out: Adrenergic (1 μM) α2A, percent inhibition of specific binding
T3 construct: expressed in transfected cells; host or cells: insect Sf9 cells
T3 sequence (P08913 1-465): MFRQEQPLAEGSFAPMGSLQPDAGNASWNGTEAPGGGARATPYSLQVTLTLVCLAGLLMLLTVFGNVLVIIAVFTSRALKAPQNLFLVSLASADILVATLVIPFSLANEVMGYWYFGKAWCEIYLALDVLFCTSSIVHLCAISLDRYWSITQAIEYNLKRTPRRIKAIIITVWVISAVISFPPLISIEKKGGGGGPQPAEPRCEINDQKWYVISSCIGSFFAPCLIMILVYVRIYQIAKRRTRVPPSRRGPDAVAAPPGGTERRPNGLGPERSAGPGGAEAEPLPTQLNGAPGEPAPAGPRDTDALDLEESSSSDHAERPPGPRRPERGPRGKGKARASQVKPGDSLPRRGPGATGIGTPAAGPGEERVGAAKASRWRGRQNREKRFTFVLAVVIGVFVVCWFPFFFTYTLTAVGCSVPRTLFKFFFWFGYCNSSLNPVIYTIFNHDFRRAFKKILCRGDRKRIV
Description: To evaluate in radioligand binding assays the activity of compounds of the invention, human recombinant adrenergic α2A receptor expressed in insect Sf9 cells (Uhlen S et al. J Pharmacol Exp Ther. 271:1558, 1994) in a modified Tris-HCl buffer (50 mM Tris-HCl, pH 7.4, 12.5 mM MgCl2, 2 mM EDTA) was used. Compounds of invention were incubated with 1 nM [^3H]MK-912 for 60 minutes at 25° C. MK912 is (2S-trans)-1,3,4,5′,6,6′,7,12b-octahydro-1′,3′-dimethyl-spiro[2H-benzofuro[2,3-a]quinolizine-2,4′(1′H)-pyrimidin]-2′(3′H)-one hydrochloride Non-specific binding was estimated in the presence of 10 μM WB-4101 (2-(2,6-Dimethoxyphenoxyethyl)aminomethyl-1,4-benzodioxane hydrochloride). Receptor proteins were filtered and washed, the filters were then counted to determine [^3H]MK-912 specifically bound. Compounds were screened at 1 μM or lower, using 1% DMSO as vehicle. Biochemical assay results are presented as the percent inhibition of specific binding in Table 6.

[4] = target: T4, human recombinant serotonin (5-Hydroxytryptamine) 5-HT6 receptor (Homo sapiens, UniProt P50406); experiment: Serotonin 5-HT6 radioligand binding ([3H]LSD); conditions: read-out: Serotonin (1 μM) 5-HT6, percent inhibition of specific binding
T4 construct: expressed in transfected cells; host or cells: human HeLa cells
Description: To evaluate in radioligand binding assays the activity of compounds of the invention, human recombinant serotonin (5-Hydroxytryptamine) 5-HT6 receptor expressed in human HeLa cells (Monsma, F. J. Jr. et al., Mol. Pharmacol. 43:320, 1993) in a modified Tris-HCl buffer (50 mM Tris-HCl, pH 7.4, 150 mM NaCl, 2 mM Ascorbic Acid, 0.001% BSA) was used. Compounds of the invention were incubated with 1.5 nM [3H]Lysergic acid diethylamide (LSD) for 120 minutes at 37° C. Non-specific binding was estimated in the presence of 5 μM Serotonin (5-HT). Receptor proteins were filtered and washed, the filters were then counted to determine [3H]LSD specifically bound. Compounds were screened at 1 μM or lower, using 1% DMSO as vehicle. Biochemical assay results are presented as the percent inhibition of specific binding in Table 7.

[5] = compound at 1 μM, insect Sf9 cells

T4 sequence (P50406 whole entry): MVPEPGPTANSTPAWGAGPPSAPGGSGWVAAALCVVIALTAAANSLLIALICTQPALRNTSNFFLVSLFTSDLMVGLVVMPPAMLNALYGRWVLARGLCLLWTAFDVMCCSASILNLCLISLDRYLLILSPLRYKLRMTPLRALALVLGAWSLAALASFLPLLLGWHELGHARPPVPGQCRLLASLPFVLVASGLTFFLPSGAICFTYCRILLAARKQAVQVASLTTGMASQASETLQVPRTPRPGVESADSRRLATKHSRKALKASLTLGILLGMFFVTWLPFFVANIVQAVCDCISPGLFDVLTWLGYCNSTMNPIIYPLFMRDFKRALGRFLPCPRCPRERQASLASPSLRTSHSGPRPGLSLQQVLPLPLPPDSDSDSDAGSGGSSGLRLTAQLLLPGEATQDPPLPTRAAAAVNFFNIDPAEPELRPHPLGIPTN
T1 sequence (P14416 whole entry): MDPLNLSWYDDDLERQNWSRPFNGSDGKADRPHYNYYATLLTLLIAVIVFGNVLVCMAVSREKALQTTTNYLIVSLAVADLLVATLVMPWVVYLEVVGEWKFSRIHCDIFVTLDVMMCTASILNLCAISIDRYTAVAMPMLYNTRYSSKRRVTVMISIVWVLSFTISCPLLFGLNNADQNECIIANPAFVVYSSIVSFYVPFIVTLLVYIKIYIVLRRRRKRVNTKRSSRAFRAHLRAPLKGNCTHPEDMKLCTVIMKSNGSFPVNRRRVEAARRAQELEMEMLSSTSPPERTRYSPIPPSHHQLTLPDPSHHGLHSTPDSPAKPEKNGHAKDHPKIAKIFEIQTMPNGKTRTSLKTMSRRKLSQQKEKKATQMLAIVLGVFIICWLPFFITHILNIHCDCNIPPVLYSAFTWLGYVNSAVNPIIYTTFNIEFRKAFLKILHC

Row | SMILES | inhibition at 1 µM ([1]; compound at 1 μM, CHO cells) | inhibition at 1 µM ([2]; compound at 1 μM, CHO-K1 cells) | inhibition at 1 µM [3, 5] | inhibition at 1 µM ([4]; compound at 1 μM, HeLa cells) | inhibition at 1 µM [1] | inhibition at 1 µM [2] | inhibition at 1 µM [3] | inhibition at 1 µM [4]
1 | CCOC(=O)Cn1c2c(c3cc(C)ccc31)CN(C)CC2 [CD57, ethyl 2-(1,2,3,4-tetrahydro-2,8-dimethylpyrido[4,3-b]indol-5-yl)acetate] | 12% | 65% | 45% | 67% |  |  |  | 
2 | Cc1ccc2c(c1)c1c(n2CC(=O)O)CCN(C)C1 [CD58, 2-(1,2,3,4-tetrahydro-2,8-dimethylpyrido[4,3-b]indol-5-yl)acetic acid] | 2% | -6% | -7% | -5% |  |  |  | 
3 | Cc1ccc2c(c1)c1c(n2CCN)CCN(C)C1 [CD62, 2-(1,2,3,4-tetrahydro-2,8-dimethylpyrido[4,3-b]indol-5-yl)ethanamine] | 26% | 32% | 42% | 12% |  |  |  | 
4 | CN1CCc2c(c3cc(Cl)ccc3n2CCCO)C1 [CD87, 3-(8-chloro-2-methyl-3,4-dihydro-1H-pyrido[4,3-b]indol-5(2H)-yl)propan-1-ol] | 10% | 103% | 79% | 35% |  |  |  | 
5 | CN1CCc2c(c3cc(Cl)ccc3n2CCBr)C1 [CD88, 5-(2-bromoethyl)-8-chloro-2-methyl-2,3,4,5-tetrahydro-1H-pyrido[4,3-b]indole] |  |  |  |  | 27% | 104% | 80% | 87%
6 | CN1CCc2c(c3cc(Cl)ccc3n2CCO)C1 [CD89, 2-(8-chloro-2-methyl-3,4-dihydro-1H-pyrido[4,3-b]indol-5(2H)-yl)ethanol] | 0% | 100% | 70% | 36% |  |  |  | 
7 | Cc1ccc2c(c1)c1c(n2CCO)CCN(C)C1 [CD90, 2-(2,8-dimethyl-3,4-dihydro-1H-pyrido[4,3-b]indol-5(2H)-yl)ethanol] | -8% | 61% | 22% | 7% |  |  |  | 
8 | Cc1ccc2c(c1)c1c(n2CCBr)CCN(C)C1 [CD91, 5-(2-bromoethyl)-2,8-dimethyl-2,3,4,5-tetrahydro-1H-pyrido[4,3-b]indole] | 15% | 102% | 86% | 88% |  |  |  | 
9 | Cc1ccc2c(c1)c1c(n2CCC#N)CCN(C)C1 [CD92, 3-(2,8-dimethyl-3,4-dihydro-1H-pyrido[4,3-b]indol-5(2H)-yl)propanenitrile] | 3% | 94% | 76% | 47% |  |  |  | 
10 | CN1CCc2c(c3cc(Cl)ccc3n2CCC#N)C1 [CD94, 3-(8-chloro-2-methyl-3,4-dihydro-1H-pyrido[4,3-b]indol-5(2H)-yl)propanenitrile] | 1% | 86% | 73% | 40% |  |  |  | 
11 | Cc1ccc2c(c1)c1c(n2CCNC(=O)C2CCCNC2)CCN(C)C1 (stereo not drawn) [Compound 9, N-(2-(1,2,3,4-tetrahydro-2,8-dimethylpyrido[4,3-b]indol-5-yl)ethyl)piperidine-3-carboxamide] | 2% | 25% | 20% | -5% |  |  |  | 
12 | CCOC(=O)Cn1c2c(c3cc(Cl)ccc31)CN(C)CC2 [Compound 10, ethyl 2-(8-chloro-1,2,3,4-tetrahydro-2-methylpyrido[4,3-b]indol-5-yl)acetate] | 12% | 71% | 40% | 69% |  |  |  | 
13 | CC(C)OC(=O)Cn1c2c(c3cc(Cl)ccc31)CN(C)CC2 [Compound 11, isopropyl 2-(8-chloro-1,2,3,4-tetrahydro-2-methylpyrido[4,3-b]indol-5-yl)acetate] | 10% | 69% | 25% | 66% |  |  |  | 
14 | CN1CCc2c(c3cc(Cl)ccc3n2CC(=O)OC(C)(C)C)C1 [Compound 12, tert-butyl 2-(8-chloro-1,2,3,4-tetrahydro-2-methylpyrido[4,3-b]indol-5-yl)acetate] | 23% | 45% | 12% | 67% |  |  |  | 
15 | CN1CCc2c(c3cc(Cl)ccc3n2CC(=O)OCc2ccccc2)C1 [Compound 13, benzyl 2-(8-chloro-1,2,3,4-tetrahydro-2-methylpyrido[4,3-b]indol-5-yl)acetate] | 38% | 97% | 73% | 101% |  |  |  | 
16 | CN1CCc2c(c3cc(Cl)ccc3n2CC(=O)OCC2CCCCC2)C1 [Compound 14, cyclohexylmethyl 2-(8-chloro-1,2,3,4-tetrahydro-2-methylpyrido[4,3-b]indol-5-yl)acetate] | 31% | 103% | 79% | 106% |  |  |  | 
17 | CN1CCc2c(c3cc(Cl)ccc3n2CC(=O)OC2CCCC2)C1 [Compound 15] | 26% | 95% | 67% | 96% |  |  |  | 
18 | CC(C)OC(=O)CCn1c2c(c3cc(Cl)ccc31)CN(C)CC2 [Compound 17, isopropyl 3-(8-chloro-1,2,3,4-tetrahydro-2-methylpyrido[4,3-b]indol-5-yl)propanoate] | 13% | 106% | 90% | 99% |  |  |  | 

Reference: patent US9115137B2, “2,3,4,5-tetrahydro-1H-pyrido[4,3-B]indole compounds and methods of use thereof” (priority 2008, dated 2015)
